# Tests used:
# HIV-1 = test: Acute PBMC infection model: p24 and HIV-1 RNA in supernatant; format: cell-based; conditions: for p24 in culture (virus production, p24 capture assay): HIV-infected PBMCs co-cultured with uninfected PBMCs, CPX 30 μM, DEF 250 μM, P2 30 μM added at 48 hr, followed to 144 hr; for HIV-1 RNA production / p24 production: isolate #990,135, compound added at 48 hr, 30 or 60 μM
# Method: Using an institutional review board (IRB)-approved protocol, PBMCs were isolated from the blood of healthy donors and stimulated overnight with phytohemagglutinin (PHA) and human IL-2. Stimulated cells were pelleted and resuspended for culture at a final concentration of 0.5×10^6 cells/ml in PHA-free RPMI 1640 medium containing 10% fetal calf serum (v/v), 100 units/ml penicillin G, 100 μg/ml streptomycin, 2 mM […], and 3.5 ng/ml human IL-2 (Medium B). Cultures were incubated at 37° C., 5% CO2, and 95% humidity.
# Using an IRB-approved protocol, two donors were recruited to generate clinical viral isolates. One (#990,135) was highly immunocompromised despite on-going combination antiretroviral therapy (cART) (CD4 count <5%; HIV RNA in plasma at log10 5.5 copies/ml). The second (#990,010) was moderately to severely immunocompromised on cART (CD4 count 14-26%; HIV RNA in plasma at log10 3.8-5.0 copies/ml). For infection, 5×10^6 uninfected stimulated PBMCs were co-cultured with 10×10^6 PBMCs from one of the HIV-infected donors in Medium B. On day 3, half of the supernatant was removed and replenished with an equal volume of fresh Medium B. On day 7, the medium was likewise replenished and 7.5×10^6 stimulated uninfected PBMCs were added. On days 10, 17, and 24, half of the supernatant was replenished. On days 14, 21, and 28, stimulated uninfected PBMCs were added. Cells were harvested when p24 reached 250 pg/ml, cryopreserved in freezing medium (90% fetal calf serum, 10% dimethyl sulfoxide), and stored in liquid nitrogen as infected PBMC stock. Cell-free supernatants were stored at −80° C.
# Uninfected PBMCs were co-incubated with infected PBMC stock in 24-well microplates at 2 ml/well Medium B, at a 10:1 ratio of uninfected-to-infected cells, and a total cell number of 1×10^6. Cultures were maintained and assayed for 6 consecutive days. […] Leaving the cell layer undisturbed, half the medium in each well was replenished every day, with concurrent adjustment of compound concentration. On each day during the 6-day experiments, a set of wells was harvested: the cells were processed for determination of viability and apoptosis, and the cell-free supernatants were stored at −80° C. for p24 and viral RNA measurements. Experiments were performed at least in duplicate and repeated at least twice.
# p24 core antigen in the supernatant was quantified by ELISA (Retrotek HIV-1 p24™; ZeptoMetrix Corp.; Buffalo, N.Y.). HIV-1 RNA copy number in the supernatant was determined with a PCR-based and FDA-approved assay (Amplicor HIV-1 Monitor™; Roche Diagnostics Corp.; Indianapolis, Ind.). IFN-γ and IL-10 in the supernatant were determined by cytometric bead array (Human Th1/Th2 Cytokine Kit II™; BD Biosciences Pharmingen, San Jose, Calif.).
# To examine the effect of CPX and DEF on HIV-1 propagation, uninfected PBMCs from healthy donors were co-cultured with HIV-infected PBMCs and virus production was monitored by the p24 capture assay. In untreated cultures, p24 was first detected at 96 hr and increased up to 144 hr (FIG. 1C; Control). […] The profound inhibition is due, at least in part, to activation of apoptosis at later stages of infection. These concentrations are within the clinically relevant range and sufficient to block DOHH activity and eIF5A modification (see below).
# To examine the antiretroviral action of CPX in a clinic-derived model, PBMCs infected with patient isolates of HIV-1 were used. Naïve freshly isolated PBMCs from a single donor were infected by co-cultivation with HIV-infected, HLA-nonidentical PBMCs at an initial uninfected/infected cell ratio of 10:1. CPX was added and cells were maintained and monitored for six days. Half of each culture supernatant was replenished daily with CPX-containing or CPX-free medium as appropriate. […]
# HIV-1 promoter = test: Dual luciferase assay, HIV-1 molecular clone pNL4-3-LucE- and derived constructs in 293T cells; format: cell-based; conditions: for inhibition of expression from construct VI: 3′-LTR replaced by SV40 poly(A) signal; for dose dependence of repression of expression from pNL4-3-LucE- / repression of luciferase expression (FF:Ren) from pNL4-3-LucE-: 12 hr post-transfection; for repression of luciferase expression (FF:Ren) from pNL4-3-LucE-: CPX 30 μM, DEF 250 μM, P2 30 μM; for inhibition of FF expression from construct V: all open reading frames deleted except luciferase; for inhibition of FF expression from constructs III and IV: within 12 hr, Tat-deficient constructs complemented with Tat vector
# Method: Plasmids were introduced into 2×10^5 293T cells by transfection using Lipofectamine 2000 (Invitrogen) according to the manufacturer's instructions. Compounds (such as CPX or DEF) were added simultaneously. Cells were harvested at 12 hr post-transfection, washed with PBS, lysed in 0.15 ml of 1× passive lysis buffer (Promega), and assayed for luciferase activity using the Promega dual luciferase reporter system according to the manufacturer's instructions. Jurkat cells (1×10^6 cells) were transfected using FuGENE 6 (Roche) according to the manufacturer's instructions and assayed in a similar fashion after pelleting.
# 293T cells (10^5 cells/well of 12-well microplates) were seeded and transfected 20 hr later with a firefly luciferase (Luc)-expressing reporter plasmid and corresponding Renilla luciferase (Ren)-expressing reference plasmid using TransFectin™ (Bio-Rad, Hercules, Calif.). The bioavailable intracellular iron concentration was monitored using plasmids obtained from B. Galy and M. W. Hentze (EMBL, Heidelberg). Plasmid pcFIF-Luc contains the mouse ferritin H 5′-UTR with an iron response element (IRE) controlling Luc; pcFIRo-Ren is a similar construct expressing a mutated non-functional IRE fused to Ren. The activity of the HIV-1 promoter was monitored using the pNL4-3-Luc E molecular clone (Chen et al. (1994) J Virol 68: 654-660.), based on the recombinant infectious proviral clone that contains DNA from HIV isolates NY5 (5′ half) and IIIB (3′ half). This plasmid, obtained from D. Baltimore (Caltech, Pasadena), contains the Luc gene in place of 102 nucleotides from nef and 6 nucleotides from env. pCMV-Ren (Promega, Madison, Wis.) was used as reference for pNL4-3-Luc E. Compounds were added at the time of transfection. Cells were harvested 12 hr later, washed with phosphate-buffered saline, and lysed for the dual luciferase assay (Dual Luciferase™ Reporter Assay System; Promega, Madison, Wis.). Luc data were normalized to the Ren internal controls (Hogue et al. (2009) Retrovirology 6: 90.).
# 293T cells were selected as a model system to explore the relationship between the drugs, eIF5A and HIV gene expression. These cells efficiently transcribe HIV-1 genes from molecular clones as well as subviral constructs, allowing for early detection of changes in HIV gene expression. To establish the system, assays were carried out to examine the effect of CPX and DEF on the expression of firefly luciferase (FF) from the HIV-1 molecular clone, pNL4-3-LucE-, engineered to carry the FF gene in place of the viral nef gene. The molecular clone was transfected into 293T cells together with the pCMV-Ren vector that expresses Renilla luciferase (Ren) from the cytomegalovirus (CMV) immediate early promoter as a control for transfection efficiency and non-specific effects of the compounds. Dual luciferase assays were conducted at 12 hr post-transfection and results are expressed as relative luciferase activity (FF:Ren). […] Assays therefore were carried out to characterize the action of CPX and DEF on eIF5A and HIV gene expression in 293T cells during the first 12 to 24 hr of drug treatment.
# [1] = isolate #990,010, CPX 30 μM added 12 hr after inoculation, six days
SMILES,"p24 in culture (virus production, p24 capture assay) (HIV-1)",inhibition of expression from construct VI (HIV-1 promoter) [%],dose dependence of repression of expression from pNL4-3-LucE- (HIV-1 promoter),repression of luciferase expression (FF:Ren) from pNL4-3-LucE- (HIV-1 promoter; DFOX 15 μM),inhibition of FF expression from construct V (HIV-1 promoter) [%],inhibition of FF expression from constructs III and IV (HIV-1 promoter) [%],HIV-1 RNA production (HIV-1),p24 production (HIV-1),"decrease of HIV-encoded luciferase expression (HIV-1 promoter; run parallel to IRE reporter (FIG. 11B), DFOX 15 μM)",HIV-1 p24 (HIV-1; [1]),extracellular HIV-1 RNA (HIV-1; [1])
"Cc1c(O)c(=O)ccn1C [DEF, 3-hydroxy-1,2-dimethylpyridin-4(1H)-one]",reduced p24 to baseline levels,~50,repressed expression from the HIV-1 molecular clone in a dose dependent fashion,~50%,~50,~50,–,–,–,–,–
"Cc1ccn(O)c(=O)c1 [Agent P2, 1-hydroxy-4-methylpyridin-2[1H]-one]",did not impede p24 production,–,–,ineffective,–,–,did not curtail the accumulation of p24 or HIV-1 RNA,did not curtail the accumulation of p24 or HIV-1 RNA,no effect on either IRE-dependent or HIV-encoded luciferase expression,–,–
"Cc1cc(C2CCCCC2)n(O)c(=O)c1 [CPX, 6-cyclohexyl-1-hydroxy-4-methylpyridin-2[1H]-one]",reduced p24 to baseline levels,~50,repressed expression from the HIV-1 molecular clone in a dose dependent fashion,~50%,~50,~50,inhibited the production of HIV-1 RNA,completely inhibited p24 production,–,remained undetectable,did not increase at any time over the initial infectious dose

# Reference: patent publication US20120225093A1, “Abrogating HIV-1 Infection via Drug-Induced Reactivation of Apoptosis” (UNIVERSITY OF MEDICINE AND DENTISTRY OF NEW JERSEY, priority 2010, published 2012)
